Assays:
[1] = test system: anemic decerebrate rigidity (Wistar male rats); assay: Effects on anemic decerebrate rigidity (EMG of M. triceps brachii); format: in vivo; settings: Rattus norvegicus, iv, 10 min; 3 mg/kg through the femoral vein; 10 minutes after administration; read-out: Suppression rate (rigidity, EMG pulse area)
Experimental: An anemic decerebrate rigidity sample was prepared principally in accordance with the procedure of Fukuda et al. [Japan. […] Wistar male rats (body weight: 270 to 350 g) were held on their backs and incised at their cervices under etherization. After the trachea and common carotid arteries were exposed, the trachea was cannulated and the bilateral common carotid arteries and esophagus were then double-ligated and cut. Thereafter, its occipital bone was exposed through which a circular hole was bored to double-ligate the centrally extending basilar artery. As each rat started coming out of anesthetization, its front limbs became rigid. Measurement was conducted by recording electromyographic (EMG) response from the muscle of the forelimb (M. triceps brachii) of the rat in the rigid state. The EMG pulses were converted to accumulated values every 10 seconds and recorded as a histogram on a recorder.
The effect of each test compound on the rigidity was evaluated in terms of the suppression rate. This rate was calculated first by determining the area of a decreased EMG pulse part on the histogram upon passage of 10 minutes after administration of a physiological saline solution of each test compound (3 mg/kg) through the femoral vein and then in accordance with the following equation.
A: EMG pulse area when no test compound was administered (control).

[2] = Acute toxicity, up-and-down method; settings: mouse, in vivo; iv (caudal vein), ddN male mice
Experimental: Using ddN male mice, the acute toxicity level of each test compound was determined in accordance with an up-and-down method. Some of the test compounds used were dissolved in physiological saline and administered through the caudal vein.

[3] = test system: glutamic acid at neuromuscular junctions of crayfish (opener muscles of the first walking legs); assay: Blocking effects against glutamic acid at neuromuscular junctions of crayfish (L-glutamic acid-induced depolarization); format: cell-based; settings: 5 min; suppression rate of depolarization by L-glutamic acid (10^-4 M); 5-minute pretreatment with test compound 2×10^-4 M
Description: The opener muscles of the first walking legs of crayfish were used as experimental materials. The neuromuscular sample was held in a bath in which a physiological solution [composition (mM): NaCl (195), CaCl2 (18), KCl (5.4), tris-maleate buffer (pH 7.5; 10), glucose (11)] for use with the crayfish was perfused at room temperature and at a constant flow rate. A glass micro-electrode filled with a 3M-KCl solution was inserted in a central part of the muscle fiber to intracellularly record changes in the potential of the muscular cell membrane.
The blocking effect of each test compound against glutamic acid was evaluated in terms of the suppression rate to depolarization which was induced by bath-applying L-glutamic acid (10^-4 M) in a 5-minute pretreatment with a solution of the test compound (2×10^-4 M).

Compound: CC(C)CC[C@H](NCCCN1CCCCCC1)[C@H](O)c1ccccc1.Cl.Cl (racemic) [Compound 45, (1RS,2SR)-5-methyl-2-[3-(perhydroazepin-1-yl)propylamino]-1-phenylhexan-1-ol dihydrochloride]
- inhibition in vivo at 3 mg/kg [1]: 90.5%
- LD50 [2]: 12.8 mg/kg
- inhibition at 200 µM [3]: 100%

Compound: CC(C)C[C@@H](NCCCN1CCCCC1)[C@H](O)c1ccccc1.Cl.Cl (racemic) [Compound 16, (1RS,2RS)-4-methyl-1-phenyl-2-(3-piperidinopropylamino)pentan-1-ol dihydrochloride]
- LD50 [2]: 28.8 mg/kg
- inhibition at 200 µM [3]: 95%

Compound: CCCC[C@H](NCCCN1CCCCC1)[C@H](O)c1ccccc1.Cl.Cl (racemic) [Compound 3, (1RS,2SR)-1-phenyl-2-(3-piperidinopropylamino)hexan-1-ol dihydrochloride]
- inhibition in vivo at 3 mg/kg [1]: 17.5%
- LD50 [2]: 19.2 mg/kg
- inhibition at 200 µM [3]: 99%

Compound: CCCCC[C@H](NCCCN1CCCCC1)[C@H](O)c1ccccc1.Cl.Cl (racemic) [Compound 5, (1RS,2SR)-1-phenyl-2-(3-piperidinopropylamino)heptan-1-ol dihydrochloride]
- inhibition in vivo at 3 mg/kg [1]: 18.5%
- LD50 [2]: 22.1 mg/kg
- inhibition at 200 µM [3]: 100%

Compound: CC(C)CC[C@H](NCCCN1CCCCC1)[C@H](O)c1ccccc1.Cl.Cl (racemic) [Compound 21, (1RS,2SR)-5-methyl-1-phenyl-2-(3-piperidinopropylamino)hexan-1-ol dihydrochloride]
- inhibition in vivo at 3 mg/kg [1]: 65.9%
- LD50 [2]: 13.6 mg/kg
- inhibition at 200 µM [3]: 100%

Compound: CC(C)CC[C@H](NCCN1CCCCC1)[C@H](O)c1ccccc1.Cl.Cl (racemic) [Compound 41, (1RS,2SR)-5-methyl-1-phenyl-2-(2-piperidinoethylamino)hexan-1-ol dihydrochloride]
- inhibition in vivo at 3 mg/kg [1]: 23.5%
- LD50 [2]: 29.5 mg/kg
- inhibition at 200 µM [3]: 94%

Compound: CC(C)CC[C@H](NCCCN1CCCC1)[C@H](O)c1ccccc1.Cl.Cl (racemic) [Compound 35, (1RS,2SR)-5-methyl-1-phenyl-2-(3-pyrrolidinopropylamino)hexan-1-ol dihydrochloride]
- inhibition in vivo at 3 mg/kg [1]: 21.6%
- LD50 [2]: 26.7 mg/kg
- inhibition at 200 µM [3]: 100%

Compound: CC(C)C[C@H](NCCCN1CCCCC1)[C@H](O)c1ccccc1.Cl.Cl (racemic) [Compound 15, (1RS,2SR)-4-methyl-1-phenyl-2-(3-piperidinopropylamino)pentan-1-ol dihydrochloride]
- LD50 [2]: 23.6 mg/kg
- inhibition at 200 µM [3]: 100%

Compound: CC(C)CC[C@H](NCCN1CCCC1)[C@H](O)c1ccccc1.Cl.Cl (racemic) [Compound 43, (1RS,2SR)-5-methyl-1-phenyl-2-(2-pyrrolidinoethylamino)hexan-1-ol dihydrochloride]
- inhibition in vivo at 3 mg/kg [1]: 16.1%
- LD50 [2]: 31.9 mg/kg
- inhibition at 200 µM [3]: 95%

Compound: CC(C)CC[C@@H](NCCCN1CCCCC1)[C@H](O)c1ccccc1.Cl.Cl (racemic) [Compound 22, (1RS,2RS)-5-methyl-1-phenyl-2-(3-piperidinopropylamino)hexan-1-ol dihydrochloride]
- inhibition in vivo at 3 mg/kg [1]: 42.3%
- LD50 [2]: 19 mg/kg
- inhibition at 200 µM [3]: 100%

Reference: patent US5250546A, “Amino-alcohol derivatives and processes for their preparation” (Nippon Chemiphar Co., Ltd., priority 1984, dated 1993)
